US20240002326A1, “COMPOUNDS AND USE THEREOF IN METHODS OF TREATMENT” (The University of Queensland, priority 2016, published 2024)
Entries after “also recorded” stand apart in the source; their conditions may differ.

Target: SOX18-RBPJ interaction (Homo sapiens (Human), UniProt P35713)
Test: ALPHAScreen SOX18-RBPJ protein-protein interaction
Assay type: binding
Source text: Proteins were genetically encoded with enhanced GFP (GFP), mCherry and cMyc (myc) tags, and cloned into cell free expression Gateway destination vectors: N-terminal GFP tagged (pCellFree_G03), N-terminal Cherry-cMyc (pCellFree_G07) and C-terminal Cherry-cMyc tagged (pCellFree_G08) (Gagoski et al., 2015). Human RBPJ (BC020780) and MEF2C (BC026341) Open Reading Frames (ORFs) were sourced from the Human ORFeome collection, version 1.1 and 5.1, and the Human Orfeome collaboration OCAA collection (Open Biosystems), as previously described (Sierecki et al., 2013) and cloned at the ARVEC facility, UQ Diamantina Institute. The entry clones pDONOR223 or pENTR201 vectors were exchanged with the ccdB gene in the expression plasmid by LR recombination (Life Technologies, Australia). The full-length human SOX18 gene was synthesized and the transfer to vectors was realized using Gateway PCR cloning. Translation competent Leishmania tarentolae extract (LTE) was prepared as previously described (Kovtun et al., 2011, Mureev et al., 2009). Protein pairs were co-expressed by adding 30 nM of GFP template plasmid and 60 nM of Cherry template plasmid to LTE and incubating for 3 hours at 27° C.
ALPHAScreen was performed as previously described (Sierecki et al., 2014, Sierecki et al., 2013). […] Percentage of interaction was calculated as: (I_cpd/I_DMSO)×100 from 3 independent experiments.
ALPHAScreen was performed as previously described (Sierecki et al., 2014, Sierecki et al., 2013), using the cMyc detection kit and Proxiplate-384 Plus plates (PerkinElmer). The LTE lysate co-expressing the proteins of interest was diluted in buffer A (25 mM HEPES, 50 mM NaCl). For the assay, 12.5 μL (0.4 μg) of Anti-cMyc coated Acceptor Beads in buffer B (25 mM HEPES, 50 mM NaCl, 0.001% NP40, 0.001% casein) were aliquoted into each well. This was followed by the addition of 2 μL of diluted sample, at different concentration, and 2 μL of biotin labeled GFP-Nanotrap in buffer A. The plates were incubated for 45 min at room temperature, then adding 2 μL (0.4 μg) of streptavidin-coated Donor Beads diluted in buffer A, and incubation in the dark for 45 min at room temperature. The ALPHAScreen signal was measured on an Envision Plate Reader (PerkinElmer), using manufacturer's recommended settings (λexc=680/30 nm for 0.18 s, λem=570/100 nm after 37 ms). The resulting bell-shaped curve is an indication of a positive interaction, while a flat line reflects a lack of interaction between the proteins. The measurement of each protein pair was repeated in triplicate.
I is the highest signal level (top of the hook effect curve) and Ineg is the lowest (background) signal level. The signals were normalized to the Iref signal obtained for the strongest interaction. […] Percentage of interaction was calculated as: […]
The ALPHA-Screen Assay was performed as previously described (Sierecki et al. 2014), using the cMyc detection kit and Proxiplate-384 Plus plates (PerkinElmer). A serial dilution of each sample was measured. The LTE lysate co-expressing the proteins of interest was diluted in buffer A (25 mM HEPES, 50 mM NaCl). For the assay, 12.5 μL (0.4 μg) of Anti-cMyc coated Acceptor Beads in buffer B (25 mM HEPES, 50 mM NaCl, 0.001% NP40, casein) were aliquoted into each well. This was followed by the addition of 2 μL of diluted sample and 2 μL of biotin labeled GFP-Nanotrap in buffer A. The plate was incubated for 45 min at RT. Afterward, 2 μL (0.4 μg) of Streptavidin coated Donor Beads diluted in buffer A, were added, followed by incubation in the dark for 45 min at RT. The ALPHA-Screen signal was obtained on an Envision Multilabel Plate Reader (PerkinElmer), using the manufacturer's recommended settings (excitation: 680/30 nm for 0.18 s, emission: 570/100 nm after 37 ms). The resulting bell-shaped curve is an indication of a positive interaction, while a flat line reflects a lack of interaction between the proteins. […]

Chain of SOX18-RBPJ interaction (P35713 whole entry): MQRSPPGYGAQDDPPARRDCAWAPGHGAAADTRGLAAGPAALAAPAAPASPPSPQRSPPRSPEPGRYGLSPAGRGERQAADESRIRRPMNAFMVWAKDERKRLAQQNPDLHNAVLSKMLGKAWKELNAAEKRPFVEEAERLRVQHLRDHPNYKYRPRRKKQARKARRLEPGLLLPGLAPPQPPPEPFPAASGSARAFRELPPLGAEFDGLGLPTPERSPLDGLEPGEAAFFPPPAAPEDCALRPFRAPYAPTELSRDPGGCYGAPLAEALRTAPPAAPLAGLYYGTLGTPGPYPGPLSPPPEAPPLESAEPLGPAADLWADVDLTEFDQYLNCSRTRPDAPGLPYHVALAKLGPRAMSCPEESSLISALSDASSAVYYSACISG

| SOX18-RBPJ protein-protein binding inhibition at 5 μM | SMILES | IC50 (ALPHAScreen, read-out: SOX18-RBPJ interaction disruption IC50) [µM] |
| --- | --- | --- |
| highly active | COc1cc(C)cc(/C=C/c2ccc3ccccc3c2)c1C(=O)O [Sm34, (E)-2-methoxy-4-methyl-6-(2-(naphthalen-2-yl)vinyl)benzoic acid] | – |
| – | O=C(O)c1ccccc1Nc1cccc(C(F)(F)F)c1 [Flufenamic acid, reference compound] | ~444 |
| highly active | Oc1cc(CCc2ccccc2)cc(O)c1O [Sm40, 5-phenethylbenzene-1,2,3-triol] | – |

| SMILES | SOX18-RBPJ protein-protein binding inhibition at 5 μM | IC50 (ALPHAScreen, read-out: SOX18-RBPJ interaction disruption IC50) [µM] |
| --- | --- | --- |
| CCN(CC)C(=O)c1c(O)cc(O)cc1CCc1ccc2ccccc2c1 [Sm26, N,N,diethyl-2,4-hydroxy-6-(2-(naphthalen-2-yl)ethyl)benzamide] | highly active; also recorded: moderately active | – |
